Calls of active or inactive are those of the source. The calls are words filed in the database; no cut-off is given here.
Key:
[1] = molecular target: Cytochrome P450 2C19 (Homo sapiens, UniProt P33261); test: Inhibition of CYP2C19 in human liver microsomes at 0.01 to 30 uM using mephenytoin as substrate in presence of NADPH by UPLC-MS/MS analysis; format: ADME, Microsome
[2] = Oral bioavailability in overnight fasted ICR mouse at 10 mg/kg measured upto 24 hrs by UPLC-MS/MS analysis; format: ADME, organism-based; conditions: in vivo
[3] = tested on: LNCaP; test: Induction of apoptosis in human LNCaP cells assessed as apoptotic cells incubated for 72 hrs by annexin V/PI double staining based flow cytometry method; format: functional, cell-based; conditions: dose 0.62-2.5 µM, DDE = dose-dependent effect
[4] = molecular target: Ribosomal protein S6 kinase alpha-4 (Homo sapiens) (UniProt O75676); test: Inhibition of MSK2 (unknown origin) at 1 uM in presence of ATP at Km concentration by mobility shift assay relative to control
Sequence of Ribosomal protein S6 kinase alpha-4 (Homo sapiens) (O75676 whole entry, looked up): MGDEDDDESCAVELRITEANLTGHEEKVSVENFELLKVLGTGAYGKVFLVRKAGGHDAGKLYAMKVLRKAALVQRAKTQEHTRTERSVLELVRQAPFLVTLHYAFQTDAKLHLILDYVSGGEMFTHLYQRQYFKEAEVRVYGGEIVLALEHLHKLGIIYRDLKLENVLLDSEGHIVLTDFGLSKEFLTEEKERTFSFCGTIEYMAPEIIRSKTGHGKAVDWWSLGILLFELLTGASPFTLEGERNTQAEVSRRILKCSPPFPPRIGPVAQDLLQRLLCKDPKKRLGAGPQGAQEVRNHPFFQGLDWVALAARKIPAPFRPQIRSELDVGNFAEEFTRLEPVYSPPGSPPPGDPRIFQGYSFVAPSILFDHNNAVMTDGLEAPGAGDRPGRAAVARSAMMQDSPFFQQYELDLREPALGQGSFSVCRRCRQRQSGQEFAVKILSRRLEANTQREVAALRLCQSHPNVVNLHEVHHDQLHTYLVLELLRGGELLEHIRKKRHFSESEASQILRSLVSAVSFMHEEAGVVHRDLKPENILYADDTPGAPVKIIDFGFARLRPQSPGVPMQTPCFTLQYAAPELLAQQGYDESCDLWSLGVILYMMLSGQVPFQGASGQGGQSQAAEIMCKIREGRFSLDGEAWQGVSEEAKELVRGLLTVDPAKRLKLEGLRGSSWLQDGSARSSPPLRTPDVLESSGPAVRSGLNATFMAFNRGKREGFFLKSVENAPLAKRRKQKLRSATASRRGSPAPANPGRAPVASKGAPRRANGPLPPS

[5] = molecular target: Protein kinase C alpha type (Homo sapiens) (UniProt P17252); test: Inhibition of PKCalpha (unknown origin) at 1 uM in presence of ATP at Km concentration by mobility shift assay relative to control
[6] = tested on: LNCaP; test: Induction of apoptosis in human LNCaP cells assessed as apoptotic cells at […] incubated for 72 hrs by annexin V/PI double staining based flow cytometry method (reference value: 3.95 %); format: functional; conditions: dose 2.5 µM
[7] = tested on: LNCaP; test: Induction of apoptosis in human LNCaP cells assessed as viable cells at 1.25 uM incubated for 72 hrs by annexin V/PI double staining based flow cytometry method (reference value: 93.63 %); format: functional; conditions: read-out: Activity
[8] = tested on: LNCaP; test: Induction of apoptosis in human LNCaP cells assessed as necrotic cells at […] incubated for 72 hrs by annexin V/PI double staining based flow cytometry method (reference value: 2.41%); format: functional
[9] = tested on: LNCaP; test: Induction of apoptosis in human LNCaP cells assessed as necrotic cells at 1.25 uM incubated for 72 hrs by annexin V/PI double staining based flow cytometry method (reference value: 2.41%); format: functional
[10] = tested on: LNCaP; test: Induction of apoptosis in human LNCap cells assessed as necrotic cells incubated for 72 hrs by annexin V/PI double staining based flow cytometry method; format: functional, cell-based; conditions: dose 0.62-2.5 µM, DDE = dose-dependent effect
[11] = tested on: LNCaP; test: Induction of cell cycle arrest in human LNCap cells assessed as decrease in accumulation at S phase at 0.04 to 1 uM incubated for 24 hrs by flow cytometry; format: functional, cell-based; conditions: dose 0.04-1 µM
[12] = Metabolic stability in CD-1 mouse liver microsomes assessed hepatic clearance at 1 uM measured after 60 mins by LC-MS/MS analysis; format: ADME, Microsome; conditions: 1 h
[13] = Metabolic stability in Sprague-Dawley rat liver microsomes assessed as half life at 1 uM measured after 60 mins by LC-MS/MS analysis; format: ADME, Microsome
[14] = Metabolic stability in Beagle dog liver microsomes assessed as parent compound remaining at 1 uM measured after 60 mins by UPLC-MS/MS analysis; format: ADME, Canis lupus familiaris, Microsome; conditions: read-out: Stability
[15] = Metabolic stability in Beagle dog liver microsomes assessed as intrinsic clearance at 1 uM measured after 60 mins by LC-MS/MS analysis; format: ADME, Canis lupus familiaris, Microsome; conditions: 1 h
[16] = Metabolic stability in Crab eating monkey liver microsomes assessed as parent compound remaining at 1 uM measured after 60 mins by UPLC-MS/MS analysis; format: ADME, Macaca fascicularis, Microsome; conditions: cynomolgus monkey, read-out: Stability
[17] = Metabolic stability in Crab eating monkey liver microsomes assessed as half life at 1 uM measured after 60 mins by LC-MS/MS analysis; format: ADME, Macaca fascicularis, Microsome; conditions: cynomolgus monkey
[18] = Metabolic stability in Crab eating monkey liver microsomes assessed hepatic clearance at 1 uM measured after 60 mins by LC-MS/MS analysis; format: ADME, Macaca fascicularis, Microsome; conditions: cynomolgus monkey, 1 h
[19] = Half life in Sprague-Dawley rat at 5 mg/kg, iv measured upto 24 hrs by UPLC-MS/MS analysis; format: ADME, organism-based; conditions: in vivo
[20] = Half life in Sprague-Dawley rat at 10 mg/kg, ig by UPLC-MS/MS analysis; format: ADME, organism-based; conditions: in vivo, po
[21] = Cmax in Sprague-Dawley rat at 5 mg/kg, iv measured upto 24 hrs by UPLC-MS/MS analysis; format: ADME, organism-based; set-up: dose 5 mg/kg, time < 24 hrs, route iv; conditions: in vivo
[22] = AUC (0 to t) in Sprague-Dawley rat at 10 mg/kg, ig by UPLC-MS/MS analysis; format: ADME, organism-based; set-up: dose 10 mg/kg, route ig; conditions: in vivo, po
[23] = Tmax in crab-eating monkey at 6 mg/kg, ig by UPLC-MS/MS analysis; format: ADME, organism-based, Macaca fascicularis; conditions: cynomolgus monkey, in vivo, po
[24] = Cmax in crab-eating monkey at 6 mg/kg, ig by UPLC-MS/MS analysis; format: ADME, organism-based, Macaca fascicularis; set-up: dose 6 mg/kg, route ig; conditions: cynomolgus monkey, in vivo, po
[25] = AUC (0 to t) in crab-eating monkey at 3 mg/kg, iv measured upto 24 hrs by UPLC-MS/MS analysis; format: ADME, organism-based, Macaca fascicularis; set-up: dose 3 mg/kg, time < 24 hrs, route iv; conditions: cynomolgus monkey, in vivo
[26] = AUC (0 to infinity) in crab-eating monkey at 3 mg/kg, iv measured upto 24 hrs by UPLC-MS/MS analysis; format: ADME, organism-based, Macaca fascicularis; set-up: dose 3 mg/kg, time < 24 hrs, route iv; conditions: cynomolgus monkey, in vivo
[27] = AUC (0 to infinity) in crab-eating monkey at 6 mg/kg, ig by UPLC-MS/MS analysis; format: ADME, organism-based, Macaca fascicularis; set-up: time infinity, dose 6 mg/kg, route ig; conditions: cynomolgus monkey, in vivo, po
[28] = Apparent volume of distribution at steady state in crab-eating monkey at 3 mg/kg, iv measured upto 24 hrs by UPLC-MS/MS analysis; format: ADME, organism-based, Macaca fascicularis; conditions: cynomolgus monkey, in vivo, read-out: Vdss(app)
[29] = tested on: LNCaP; test: Antitumor activity against human LNCaP cells xenografted in NCG mouse assessed as tumor growth inhibition at 12.5 mg/kg administered once daily for 18 to 21 days relative to control; format: functional; conditions: time 18-21 day, read-out: TGI
[30] = tested on: LNCaP; test: Antitumor activity against human LNCaP cells xenografted in NCG mouse assessed as tumor growth inhibition at 25 mg/kg administered once daily for 18 to 21 days relative to control; format: functional; conditions: time 18-21 day, read-out: TGI
[31] = Tmax in NCG mouse xenografted with human LNCaP cells at 12.5 mg/kg administered once daily for 18 to 21 days and measured upto 10 hrs post last dose by LC-MS/MS analysis; format: ADME, organism-based; conditions: in vivo, time 18-21 day
[32] = Tmax in NCG mouse xenografted with human LNCaP cells at 25 mg/kg administered once daily for 18 to 21 days and measured upto 10 hrs post last dose by LC-MS/MS analysis; format: ADME, organism-based; conditions: in vivo, time 18-21 day
[33] = Tmax in NCG mouse xenografted with human LNCaP cells at 50 mg/kg administered once daily for 18 to 21 days and measured upto 10 hrs post last dose by LC-MS/MS analysis; format: ADME, organism-based; conditions: in vivo, time 18-21 day
[34] = Cmax in NCG mouse xenografted with human LNCaP cells at 50 mg/kg administered once daily for 18 to 21 days and measured upto 10 hrs post last dose by LC-MS/MS analysis; format: ADME, organism-based; set-up: dose 50 mg/kg, time 18-21 day; conditions: in vivo
[35] = tested on: LNCaP; test: In vivo inhibition of AKT in human LNCaP cells xenografted in NCG mouse assessed as reduction in GSK-3beta phosphorylation at 25 to 50 mg/kg administered for 21 days and measured after 4 hrs post last dose by Western blot analysis; format: functional, organism-based; conditions: dose lower […], dose upper 50.0 mg/kg, time 21.0 day
[36] = Metabolic stability in human liver microsomes assessed as parent compound remaining at 1 uM measured after 60 mins by UPLC-MS/MS analysis; format: ADME, Microsome; conditions: read-out: Stability
[37] = Metabolic stability in human […] liver microsomes assessed as half life at 1 uM measured after 60 mins by LC-MS/MS analysis; format: ADME, Microsome

Sequence of Cytochrome P450 2C19 (P33261 whole entry): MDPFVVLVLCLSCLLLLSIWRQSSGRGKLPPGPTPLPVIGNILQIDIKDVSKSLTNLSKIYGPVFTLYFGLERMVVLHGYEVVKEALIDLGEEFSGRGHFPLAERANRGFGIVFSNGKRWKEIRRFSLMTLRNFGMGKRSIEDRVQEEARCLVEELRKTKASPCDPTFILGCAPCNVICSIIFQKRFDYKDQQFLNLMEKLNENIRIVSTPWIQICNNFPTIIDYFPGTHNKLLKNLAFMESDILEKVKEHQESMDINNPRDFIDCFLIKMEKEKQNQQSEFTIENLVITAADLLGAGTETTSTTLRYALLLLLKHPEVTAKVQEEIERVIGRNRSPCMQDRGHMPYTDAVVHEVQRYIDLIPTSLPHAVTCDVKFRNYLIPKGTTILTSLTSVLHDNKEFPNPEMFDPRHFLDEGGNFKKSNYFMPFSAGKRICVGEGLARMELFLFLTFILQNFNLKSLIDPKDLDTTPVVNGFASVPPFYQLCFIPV

CC(C)NC[C@@H](C(=O)N1CCN(c2ncnc3c2[C@H](C)CC(=O)N3)[C@H]2C[C@H]21)c1ccc(Cl)cc1
IC50 [1]: > 50 µM
bioavailability [2]: 29.7%
Activity [3]: Dde
inhibition [4]: 90%
inhibition [5]: 90%
Activity [6]: 38.97%
viability at 1.25 µM [7]: 69.8%
Activity ([8]; dose 0.62 µM): 4.72%
Activity ([8]; dose 2.5 µM): 6%
Activity [9]: 4.92%
Activity [10]: Dde
Activity [11]: Active
CLH [12]: < 0.762 mL/h/kg
half-life at 1 µM [13]: > 3.82 h
remaining at 1 h, 1 µM [14]: 53.6%
CLH [15]: 1.26 mL/h/kg
remaining at 1 h, 1 µM [16]: 23.1%
half-life at 1 µM [17]: 0.472 h
CLH [18]: 1.51 mL/h/kg
half-life [19]: 2.97 h
half-life [20]: 3.28 h
Cmax [21]: 1690 ng/mL
AUC(0-t) [22]: 3880 ng·h/mL
Tmax [23]: 4 h
Cmax [24]: 237 ng/mL
AUC(0-t) at 24 h [25]: 1780 ng·h/mL
AUC(0-inf) [26]: 1880 ng·h/mL
AUC(0-inf) [27]: 1680 ng·h/mL
Vd [28]: 8.36 L/kg
inhibition in vivo at 12.5 mg/kg [29]: 84.1%
inhibition in vivo at 25 mg/kg [30]: 95.5%
Tmax [31]: 2 h
Tmax [32]: 4 h
Tmax [33]: 1 h
Cmax [34]: 3050 ng/mL
Activity [35]: Active
remaining at 1 h, 1 µM [36]: 62.9%
half-life at 1 µM [37]: 1.52 h

Reference: ChEMBL document CHEMBL5154942, “Discovery of Clinical Candidate NTQ1062 as a Potent and Bioavailable Akt Inhibitor for the Treatment of Human Tumors” (J Med Chem, 2022)
